Source: US6491951B1, “Soluble compositions of toremifene” (Orion Corporation, priority 1998, dated 2002)

Columns and labels:
[1] = background statement; cited from earlier work
pKa value of toremifene = type: physicochemical
[2] = Dissolving toremifene base in aqueous compositions with a solubility enhancing acid; type: physicochemical
Source text: The compositions of the invention can be prepared e.g. by mixing an amount of a solubility enhancing acid of the invention and purified water, adding thereafter toremifene base or a pharmaceutically acceptable salt thereof and agitating the mixture. pH may be adjusted with a water solution of corresponding acid salt or e.g. sodium hydroxide. The solubility enhancing agent is preferably used in molar excess with respect to toremifene or a pharmaceutically acceptable salt thereof. More preferably, the molar excess is at least about 1.5 fold, and most preferably at least about 2 fold, e.g. from about 2 to about 100 fold, typically from about 2 to about 10 fold.
The experiments also compare the effect of solubility enhancing agents of the invention to other acids such as hydrochloric acid, gluconic acid or citric acid.
Glacial acetic acid and purified water were mixed, toremifene base was added and dissolved. pH of the solution was about 4.
Lactic acid (85% water solution) and purified water were mixed, toremifene base was added and dissolved.
Formic acid and purified water were mixed, toremifene base was added and dissolved.
Toremifene base was dissolved in methanesulfonic acid, then purified water was added.
Lactic acid (85% water solution) and purified water were mixed, toremifene base was added and dissolved. pH was adjusted to about 5 by sodium lactate (50% water solution).
Manufactured as above but pH was adjusted to about 5 with sodium hydroxide.
Hydrochloric acid and purified water were mixed, toremifene base was added. Toremifene was not dissolved.
Sodium gluconate, concentrated hydrochloric acid and purified water were mixed, toremifene base was added. Toremifene was not dissolved.
Toremifene base and 30% water solution of citric acid were mixed together and ethanol was added gradually. Toremifene was not dissolved.

[3] = Water solubility of toremifene and its salts; type: physicochemical; conditions: compared with toremifene citrate

## CN(C)CCOc1ccc(/C(=C(/CCCl)c2ccccc2)c2ccccc2)cc1 [Toremifene base, toremifene]
[1]
  Solubility in water: poorly soluble in water
pKa value of toremifene
  pKa: 8
[2]; Example 1: 18.4% toremifene base, glacial acetic acid 9.0%, purified water 72.6%, pH about 4
  Dissolution of toremifene base: dissolved
[2]; Example 1: glacial acetic acid 9.0%, purified water 72.6%, pH of the solution about 4
  Toremifene base content of the aqueous solution (by weight of the composition): 18.4%
[2]; Example 2: 52.6% toremifene base, lactic acid (85%) 24.0%, purified water 23.4%
  Dissolution of toremifene base: dissolved
[2]; Example 2: lactic acid (85%) 24.0%, purified water 23.4%
  Toremifene base content of the aqueous solution (by weight of the composition): 52.6%
[2]; Example 3: 8.2% toremifene base, formic acid 1.6%, purified water 90.2%
  Dissolution of toremifene base: dissolved
[2]; Example 3: formic acid 1.6%, purified water 90.2%
  Toremifene base content of the aqueous solution (by weight of the composition): 8.2%
[2]; Example 4: 16.7% toremifene base dissolved in methanesulfonic acid 66.6%, then purified water 16.7% added
  Dissolution of toremifene base: A clear solution was obtained
[2]; Example 4: methanesulfonic acid 66.6%, purified water 16.7%
  Toremifene base content of the aqueous solution (by weight of the composition): 16.7%
[2]; Example 5: 3.7% toremifene base, lactic acid (85%) 1.7%, sodium lactate (50%) 4.4%, purified water 90.2%, pH about 5
  Dissolution of toremifene base: dissolved
[2]; Example 5: lactic acid (85%) 1.7%, sodium lactate (50%) 4.4%, purified water 90.2%, pH about 5
  Toremifene base content of the aqueous solution (by weight of the composition): 3.7%
[2]; Example 6: lactic acid (85%) 18.2%, sodium hydroxide 2 N 27.3%, purified water 18.2%, pH about 5
  Toremifene base content of the aqueous solution (by weight of the composition): 36.3%
[2]; Example 7 (reference): 9.1% toremifene base, hydrochloric acid 1 N 31.8%, purified water 59.1%
  Dissolution of toremifene base: not dissolved
[2]; Example 8 (reference): 1.0% toremifene base, sodium gluconate 1.0%, concentrated hydrochloric acid 1.0%, purified water 97.0%
  Dissolution of toremifene base: not dissolved
[2]; Example 9 (reference): 1.0% toremifene base, citric acid (30%) 10.3%, ethanol 88.7%
  Dissolution of toremifene base: not dissolved
[2]; two fold molar excess of lactic acid and purified water
  Concentration of toremifene base solutions that can be prepared: about 50 w-%
[2]; two fold molar excess of lactic acid, pH adjusted to about 5 with sodium hydroxide
  Concentration of toremifene base solutions that can be prepared: about 36 w-%

## toremifene mesylate
[3]
  Solubility in distilled water relative to toremifene citrate: about 70 times higher
